In patent publication US20250197374A1, “WEE1 DEGRADING COMPOUNDS AND USES THEREOF” (BRISTOL-MYERS SQUIBB COMPANY, priority 2023, published 2025):

Key:
Format in all cases: cell-based
MKN45 cells = test: MKN45 cell proliferation assay (Cell-Titer-Glo, 120 hr); details: for EC50: Homo sapiens, MKN-45, 120 h, read-out: MKN45 Cell Prolif. 120 hr EC50; for MKN45 Cell Prolif. 120 hr YMin (%): minimal percent of DMSO control observed
Outline: (§1)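 MKN45 (400/well) and MDA-MB-231 (800/well) cells in RPMI with 10% FBS were exposed to 10-point half-log doses from 1 or 10 uM (0.1% DMSO) for 120 h at 37 °C. Viability was read by CellTiter-Glo luminescence. EC50 came from blank-subtracted, %DMSO four-parameter fits, with Ymin-obs as the lowest %DMSO observed.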

WEE1 = molecular target: T1, WEE1 (Homo sapiens, UniProt P30291+Q96SW2); test: WEE1-ePL degradation assay (293T-LentiX, InCELL Hunter luminescence, 4 hr); details: for DC50: LentiX-HEK293T cells expressing WEE1-ePL, 4 hr incubation, read-out: 293T-LentiX WEE1-ePL Degradation 4 hr EC50; for 293T-LentiX WEE1-ePL Degradation 4 hr YMin (%): lower limit of fit, % of DMSO control signal remaining
T1 construct: C-terminal ePL-tagged (DiscoverX, Fremont, CA) full-length WEE1 expression construct; expressed in transfected cells; host or cells: LentiX-HEK293T (Invitrogen), lentivirally transduced; the cells also over-express GSPT1-GN
Outline: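 LentiX-HEK293T cells expressing C-terminally ePL-tagged full-length WEE1 plus non-degradable GSPT1-GN (G575N, N-terminal 158 aa truncated). Treated 4 h at 37 °C with a 10-point, 3-fold series from 1 or 10 µM, then read by InCELL Hunter luminescence. EC50 from four-parameter logistic fit, Ymax set by DMSO control.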

MDA-MB-231 cells = test: MDA-MB-231 cell proliferation assay (Cell-Titer-Glo, 120 hr); details: for EC50: Homo sapiens, MDA-MB-231, 120 h, read-out: MDA-MB 231 Cell Prolif. 120 hr EC50; for MDA-MB 231 Cell Prolif. 120 hr YMin (%): minimal percent of DMSO control observed
Outline: as §1

T1 sequence (P30291 whole entry): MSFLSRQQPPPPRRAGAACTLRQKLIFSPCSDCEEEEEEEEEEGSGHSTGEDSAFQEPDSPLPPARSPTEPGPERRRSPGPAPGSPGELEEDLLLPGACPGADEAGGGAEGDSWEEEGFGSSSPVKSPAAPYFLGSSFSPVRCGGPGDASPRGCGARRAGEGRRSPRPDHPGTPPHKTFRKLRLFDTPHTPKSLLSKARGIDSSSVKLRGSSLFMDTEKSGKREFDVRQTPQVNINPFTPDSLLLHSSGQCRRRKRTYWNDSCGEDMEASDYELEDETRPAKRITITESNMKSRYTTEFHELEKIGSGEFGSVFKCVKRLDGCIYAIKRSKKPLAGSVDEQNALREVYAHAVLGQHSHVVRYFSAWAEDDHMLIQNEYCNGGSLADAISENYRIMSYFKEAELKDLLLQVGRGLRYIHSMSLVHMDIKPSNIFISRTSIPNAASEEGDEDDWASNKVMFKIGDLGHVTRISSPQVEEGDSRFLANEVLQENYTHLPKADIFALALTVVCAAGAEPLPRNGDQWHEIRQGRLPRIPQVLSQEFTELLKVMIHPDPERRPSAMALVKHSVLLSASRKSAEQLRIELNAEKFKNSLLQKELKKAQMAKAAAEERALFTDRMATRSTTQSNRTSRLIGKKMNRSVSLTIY
T1 sequence (Q96SW2 whole entry): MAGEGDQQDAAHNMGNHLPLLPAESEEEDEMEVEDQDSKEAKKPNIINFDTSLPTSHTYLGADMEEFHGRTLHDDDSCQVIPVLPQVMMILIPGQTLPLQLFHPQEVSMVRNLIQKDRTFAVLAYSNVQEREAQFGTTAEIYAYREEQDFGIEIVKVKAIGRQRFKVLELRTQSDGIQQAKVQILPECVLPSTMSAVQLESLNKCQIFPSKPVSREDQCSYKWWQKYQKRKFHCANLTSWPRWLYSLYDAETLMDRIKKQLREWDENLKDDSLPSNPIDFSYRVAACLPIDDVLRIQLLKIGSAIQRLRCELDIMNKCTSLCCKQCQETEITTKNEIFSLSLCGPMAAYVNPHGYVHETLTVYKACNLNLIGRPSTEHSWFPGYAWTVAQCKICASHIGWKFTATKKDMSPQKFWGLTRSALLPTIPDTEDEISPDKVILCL
T1 sequence (Q16531 whole entry partner): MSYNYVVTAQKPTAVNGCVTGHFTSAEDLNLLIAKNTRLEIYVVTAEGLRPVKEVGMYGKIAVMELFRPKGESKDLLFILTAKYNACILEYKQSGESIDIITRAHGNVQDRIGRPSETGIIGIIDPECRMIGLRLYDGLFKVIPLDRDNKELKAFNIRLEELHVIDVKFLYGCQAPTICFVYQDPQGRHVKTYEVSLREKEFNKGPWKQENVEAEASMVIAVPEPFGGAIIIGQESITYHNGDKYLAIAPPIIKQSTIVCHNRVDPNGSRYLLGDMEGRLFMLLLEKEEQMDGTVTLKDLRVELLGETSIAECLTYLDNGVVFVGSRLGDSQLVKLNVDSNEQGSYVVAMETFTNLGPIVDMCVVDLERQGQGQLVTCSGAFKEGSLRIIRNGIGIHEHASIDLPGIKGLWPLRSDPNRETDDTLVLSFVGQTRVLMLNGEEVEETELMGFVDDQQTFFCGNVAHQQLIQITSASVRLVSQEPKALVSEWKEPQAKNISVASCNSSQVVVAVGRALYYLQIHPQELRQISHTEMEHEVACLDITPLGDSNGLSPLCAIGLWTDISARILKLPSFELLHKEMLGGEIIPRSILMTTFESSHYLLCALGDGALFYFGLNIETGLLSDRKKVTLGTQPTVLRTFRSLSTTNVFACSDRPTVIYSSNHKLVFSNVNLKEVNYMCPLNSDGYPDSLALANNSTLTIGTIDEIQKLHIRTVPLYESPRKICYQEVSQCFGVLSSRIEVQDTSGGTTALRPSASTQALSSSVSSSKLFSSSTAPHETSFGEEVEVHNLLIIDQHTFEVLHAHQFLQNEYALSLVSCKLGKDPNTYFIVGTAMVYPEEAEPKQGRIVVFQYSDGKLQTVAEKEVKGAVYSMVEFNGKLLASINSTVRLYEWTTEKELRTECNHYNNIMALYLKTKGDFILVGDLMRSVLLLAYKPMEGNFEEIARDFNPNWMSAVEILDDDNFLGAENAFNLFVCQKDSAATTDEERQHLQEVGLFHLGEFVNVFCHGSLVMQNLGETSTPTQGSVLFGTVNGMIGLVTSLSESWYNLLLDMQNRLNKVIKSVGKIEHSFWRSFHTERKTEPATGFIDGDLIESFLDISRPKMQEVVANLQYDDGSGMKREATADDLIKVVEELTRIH

Structure (SMILES)	EC50 (MKN45 cells)	MKN45 Cell Prolif. 120 hr YMin (%) (MKN45 cells)	DC50 (WEE1)	293T-LentiX WEE1-ePL Degradation 4 hr YMin (%) (WEE1)	EC50 (MDA-MB-231 cells)	MDA-MB 231 Cell Prolif. 120 hr YMin (%) (MDA-MB-231 cells)
COC[C@@H]1CN(Cc2cc(F)c3ncc(N4CCOCC4)cc3c2)C[C@H]1Oc1ccc2c(c1)CN([C@H]1CCC(=O)NC1=O)C2=O [Example 30, (S)-3-(5-(((3S,4S)-1-((8-fluoro-3-morpholinoquinolin-6-yl)methyl)-4-(methoxymethyl)pyrrolidin-3-yl)oxy)-1-oxoisoindolin-2-yl)piperidine-2,6-dione]	1 nM	7.8%	1 nM	27.9%	14 nM	12.7%
O=C1CC[C@H](N2Cc3cc(O[C@@H]4CN(Cc5cc(F)c6nc(C7CCOCC7)ccc6c5)C[C@H]4c4ccncc4)ccc3C2=O)C(=O)N1 (relative stereo) [Example 118, (S)-3-(5-(((3S*,4R*)-1-((8-fluoro-2-(tetrahydro-2H-pyran-4-yl)quinolin-6-yl)methyl)-4-(pyridin-4-yl)pyrrolidin-3-yl)oxy)-1-oxoisoindolin-2-yl)piperidine-2,6-dione]	–	65.0%	–	92.4%	286 nM	70.2%
COC[C@@H]1CN(Cc2ccc3nc(N4CCN(C(C)=O)C5(CC5)C4)ncc3c2)C[C@H]1Oc1ccc2c(c1)CN([C@H]1CCC(=O)NC1=O)C2=O [Example 94, (3S)-3-(5-{[(3S,4S)-1-[(2-{4-acetyl-4,7-diazaspiro[2.5]octan-7-yl}quinazolin-6-yl)methyl]-4-(methoxymethyl)pyrrolidin-3-yl]oxy}-1-oxo-2,3-dihydro-1H-isoindol-2-yl)piperidine-2,6-dione]	2 nM	8.5%	1 nM	26.4%	16 nM	16.0%
COC[C@@H]1CN(Cc2ccc3nc(N4C[C@H]5CCO[C@H]5C4)ccc3c2)C[C@H]1Oc1ccc2c(c1)CN([C@H]1CCC(=O)NC1=O)C2=O (single isomer, unassigned) [Example 5, (S)-3-(5-(((3S,4S)-1-((2-((3aR*,6aR*)-hexahydro-5H-furo[2,3-c]pyrrol-5-yl)quinolin-6-yl)methyl)-4-(methoxymethyl)pyrrolidin-3-yl)oxy)-1-oxoisoindolin-2-yl)piperidine-2,6-dione]	1 nM	10.6%	1 nM	32.3%	12 nM	45.5%
COC[C@@H]1CN(Cc2cc(F)c3nc(N4CCN(C(C)=O)C5(CC5)C4)ncc3c2)C[C@H]1Oc1ccc2c(c1)CN([C@H]1CCC(=O)NC1=O)C2=O [Example 85, (3S)-3-(5-{[(3S,4S)-1-[(2-{4-acetyl-4,7-diazaspiro[2.5]octan-7-yl}-8-fluoroquinazolin-6-yl)methyl]-4-(methoxymethyl)pyrrolidin-3-yl]oxy}-1-oxo-2,3-dihydro-1H-isoindol-2-yl)piperidine-2,6-dione]	1 nM	11.1%	1 nM	27.9%	22 nM	16.6%
COC[C@@H]1CN(Cc2cc(F)c3nc(N4CCC(O)CC4)ncc3c2)C[C@H]1Oc1ccc2c(c1)CN([C@H]1CCC(=O)NC1=O)C2=O [Example 63, (3S)-3-(5-{[(3S,4S)-1-{[8-fluoro-2-(4-hydroxypiperidin-1-yl)quinazolin-6-yl]methyl}-4-(methoxymethyl)pyrrolidin-3-yl]oxy}-1-oxo-2,3-dihydro-1H-isoindol-2-yl)piperidine-2,6-dione]	2 nM	9.2%	3 nM	29.2%	42 nM	22.6%
CC(C)(O)[C@@H]1CN(Cc2ccc3nc(C4CCOCC4)ccc3c2)C[C@H]1Oc1ccc2c(c1)CN([C@H]1CCC(=O)NC1=O)C2=O (racemic) [Example 137, rel-(3S)-3-(5-((4-(2-hydroxypropan-2-yl)-1-((2-(tetrahydro-2H-pyran-4-yl)quinolin-6-yl)methyl)pyrrolidin-3-yl)oxy)-1-oxoisoindolin-2-yl)piperidine-2,6-dione]	233 nM	70.6%	12 nM	40.9%	61 nM	77.3%
COC[C@@H]1CN(Cc2cc(F)c3nc(N4CCCC4=O)ccc3c2)C[C@H]1Oc1ccc2c(c1)CN([C@H]1CCC(=O)NC1=O)C2=O [Example 59, (3S)-3-(5-{[(3S,4S)-1-{[8-fluoro-2-(2-oxopyrrolidin-1-yl)quinolin-6-yl]methyl}-4-(methoxymethyl)pyrrolidin-3-yl]oxy}-1-oxo-2,3-dihydro-1H-isoindol-2-yl)piperidine-2,6-dione]	1 nM	10.7%	1 nM	29.1%	61 nM	12.1%
COC[C@@H]1CN(Cc2cc(F)c3nc(N4CCC(O)CC4)ccc3c2)C[C@H]1Oc1ccc2c(c1)CN([C@H]1CCC(=O)NC1=O)C2=O [Example 64, (S)-3-(5-(((3S,4S)-1-((8-fluoro-2-(4-hydroxypiperidin-1-yl)quinolin-6-yl)methyl)-4-(methoxymethyl)pyrrolidin-3-yl)oxy)-1-oxoisoindolin-2-yl)piperidine-2,6-dione]	2 nM	8.8%	1 nM	28.5%	23 nM	17.1%
COC[C@@H]1CN(Cc2ccc3nc(C4CCN(C5CN(C)C5)CC4)ccc3c2)C[C@H]1Oc1ccc2c(c1)CN([C@H]1CCC(=O)NC1=O)C2=O [Example 122, (3S)-3-(5-{[(3S,4S)-4-(methoxymethyl)-1-({2-[1-(1-methylazetidin-3-yl)piperidin-4-yl]quinolin-6-yl}methyl)pyrrolidin-3-yl]oxy}-1-oxo-2,3-dihydro-1H-isoindol-2-yl)piperidine-2,6-dione]	2 nM	8.5%	2 nM	22.0%	23 nM	59.3%
COC[C@@H]1CN(Cc2cc(F)c3nc(C(C)(C)O)ncc3c2)C[C@H]1Oc1ccc2c(c1)CN([C@H]1CCC(=O)NC1=O)C2=O [Example 41, (3S)-3-(5-{[(3S,4S)-1-{[8-fluoro-2-(2-hydroxypropan-2-yl)quinazolin-6-yl]methyl}-4-(methoxymethyl)pyrrolidin-3-yl]oxy}-1-oxo-2,3-dihydro-1H-isoindol-2-yl)piperidine-2,6-dione]	10 nM	12.5%	22 nM	30.3%	151 nM	39.1%
